One experiment has as its target T1, rat NaPi-2b (Rattus norvegicus, UniProt Q9JJ09).
T1 construct: expressed in transfected cells; host or cells: Xenopus oocytes injected with cRNA
T1 sequence (Q9JJ09 1-695): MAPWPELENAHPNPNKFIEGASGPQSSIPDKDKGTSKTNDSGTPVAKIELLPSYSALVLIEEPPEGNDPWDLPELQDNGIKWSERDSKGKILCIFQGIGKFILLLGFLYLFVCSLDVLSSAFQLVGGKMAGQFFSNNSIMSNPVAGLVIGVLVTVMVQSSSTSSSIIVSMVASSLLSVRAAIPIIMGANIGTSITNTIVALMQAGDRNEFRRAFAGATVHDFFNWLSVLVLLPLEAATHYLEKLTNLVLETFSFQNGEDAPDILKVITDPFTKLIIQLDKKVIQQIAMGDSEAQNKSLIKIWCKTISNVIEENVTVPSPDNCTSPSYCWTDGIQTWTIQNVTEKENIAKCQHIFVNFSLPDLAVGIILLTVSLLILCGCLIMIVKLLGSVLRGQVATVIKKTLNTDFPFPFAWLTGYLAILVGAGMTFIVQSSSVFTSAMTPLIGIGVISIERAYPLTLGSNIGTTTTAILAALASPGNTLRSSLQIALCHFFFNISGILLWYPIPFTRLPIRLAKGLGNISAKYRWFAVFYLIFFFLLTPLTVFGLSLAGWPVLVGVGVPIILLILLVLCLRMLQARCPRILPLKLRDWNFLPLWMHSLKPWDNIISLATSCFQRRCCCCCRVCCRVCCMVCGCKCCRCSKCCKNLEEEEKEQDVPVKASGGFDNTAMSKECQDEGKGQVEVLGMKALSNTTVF
Briefly: Sodium-dependent phosphate uptake of Xenopus oocytes which expressed NaPi-2b (32P). Format: cell-based. Particulars: for IC50: Xenopus oocytes expressing rat NaPi-2b, 32P radioactive phosphorus, read-out: IC50 (phosphate uptake inhibitory activity). The procedure, abridged: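 Percent inhibition at 300 μM and 100 μM comes from the same inhibition curve of 32P uptake. Assay used oocytes expressing rat NaPi-2b after 2 days of culture.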

For the next experiment, the target named is T2, human NaPi-2a (Homo sapiens, UniProt Q06495).
T2 construct: expressed in transfected cells
T2 sequence (Q06495 1-639): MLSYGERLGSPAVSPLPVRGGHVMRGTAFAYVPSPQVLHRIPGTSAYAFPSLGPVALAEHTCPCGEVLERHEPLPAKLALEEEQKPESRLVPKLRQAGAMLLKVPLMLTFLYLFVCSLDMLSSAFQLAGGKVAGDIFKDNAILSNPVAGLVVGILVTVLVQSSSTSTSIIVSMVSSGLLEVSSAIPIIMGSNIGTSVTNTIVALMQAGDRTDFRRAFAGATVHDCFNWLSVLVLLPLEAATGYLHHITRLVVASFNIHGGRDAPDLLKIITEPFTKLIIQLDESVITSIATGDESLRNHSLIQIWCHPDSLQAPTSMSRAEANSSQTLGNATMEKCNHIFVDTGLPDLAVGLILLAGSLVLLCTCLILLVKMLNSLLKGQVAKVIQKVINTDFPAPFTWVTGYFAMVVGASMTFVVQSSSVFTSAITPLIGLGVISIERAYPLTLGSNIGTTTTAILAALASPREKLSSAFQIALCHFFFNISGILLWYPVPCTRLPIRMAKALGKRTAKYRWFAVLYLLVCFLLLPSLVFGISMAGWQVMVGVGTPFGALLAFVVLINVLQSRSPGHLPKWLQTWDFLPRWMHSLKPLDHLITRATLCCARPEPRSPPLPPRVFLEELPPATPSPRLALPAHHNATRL
Kind of experiment: Sodium-dependent phosphate uptake of Xenopus oocytes which expressed NaPi-2a (32P). Format: cell-based. Conditions: Xenopus oocytes expressing human NaPi-2a; for IC50: phosphate uptake, five concentration levels. The text has this: Experiment of Sodium-Dependent Phosphate Uptake of Xenopus oocytes which Expressed NaPi-2a
In the test, a group with the addition of choline chloride (Choline Cl) was used as a negative control for nonspecific uptake, and PFA (phosphonoformic acid) was used as a positive control for phosphate transport inhibition.

On to `COc1ccc(C(=O)Nc2ccccc2C(=O)N/N=C/C=C/c2ccccc2)cc1OC` [Compound 1, 3,4-Dimethoxy-N-[2-(3-phenyl-allylidene-hydrazinocarbonyl)-phenyl]-benzamide], for which the IC50 on rat NaPi-2b came to 9110 nM. For the same compound, the “phosphate uptake inhibitory activity against NaPi-2a” value on human NaPi-2a (FIG. 3, FIG. 4) is given as “concentration-dependent inhibitory activity”.
On to `O=C(Nc1ccc(Br)cc1C(=O)N/N=C/c1ccc(Cl)c(C(F)(F)F)c1)c1ccc(CSc2ccncc2)cc1` [Compound 260, N-[4-Bromo-2-(4-chloro-3-trifluoromethyl-benzylidene-hydrazinocarbonyl)-phenyl]-4-(pyridin-4-ylsulfanylmethyl)-benzamide], for which the IC50 at rat NaPi-2b is less than 3000 nM; against human NaPi-2a, less than 3 µM.
The corresponding values for `O=C(Nc1ccc(Br)cc1C(=O)N/N=C/c1ccc(F)cc1)c1ccc(CSCCO)cc1` [Compound 262, N-[4-Bromo-2-(4-fluoro-benzylidene-hydrazinocarbonyl)-phenyl]-4-(2-hydroxy-ethylsulfanylmethyl)-benzamide] are 1100 nM and 4.42 µM.
For `Cc1ccc(/C=N/NC(=O)c2cc(Br)ccc2NC(=O)c2ccc(CSCCO)cc2)cc1` [Compound 264, N-[4-Bromo-2-(4-methyl-benzylidene-hydrazinocarbonyl)-phenyl]-4-(2-hydroxy-ethylsulfanylmethyl)-benzamide] the same measures were less than 1000 nM and 4.36 µM.
For `Cc1csc(NC(=O)c2cccc(CN(CC(C)O)CC(C)O)c2)c1C(=O)N/N=C/c1ccc(Cl)c(C(F)(F)F)c1` (stereo not shown) [Compound 591, 3-{[bis-(2-hydroxy-propyl)-amino]-methyl}-N-[3-(4-chloro-3-trifluoromethyl-benzylidene-hydrazinocarbonyl)-4-methyl-thiophen-2-yl]-benzamide] the same measures were 1010 nM and 4.04 µM.
For the compound `COc1ccc(/C=N/NC(=O)c2c(C)csc2NC(=O)c2cccc(CN(CC(C)O)CC(C)O)c2)cc1` (stereo not shown) [Compound 592, 3-{[Bis-(2-hydroxy-propyl)-amino]-methyl}-N-[3-(4-methoxy-benzylidene-hydrazinocarbonyl)-4-methyl-thiophen-2-yl]-benzamide], the results for the IC50 at rat NaPi-2b and against human NaPi-2a were 11900 nM and 9.51 µM, respectively.
The corresponding values for `Cc1ccc(/C=N/NC(=O)c2c(NC(=O)c3cccc(CN(CC(C)O)CC(C)O)c3)sc3c2CCCC3)cc1C` (stereo not shown) [Compound 627, 3-{[Bis-(2-hydroxy-propyl)-amino]-methyl}-N-[3-(3,4-dimethyl-benzylidene-hydrazinocarbonyl)-4,5,6,7-tetrahydro-benzo-[b]thiophen-2-yl]-benzamide] are less than 1000 nM and 3.53 µM.
For `Cc1ccc(/C=N/NC(=O)c2c(NC(=O)c3cccc(CN(CC(C)O)CC(C)O)c3)sc3c2CCCC3)cc1` (stereo not shown) [Compound 628, 3-{[Bis-(2-hydroxy-propyl)-amino]-methyl}-N-[3-(4-methyl-benzylidene-hydrazinocarbonyl)-4,5,6,7-tetrahydro-benzo-[b]thiophen-2-yl]-benzamide] the same measures were 1290 nM and 3.59 µM.
For `CC(O)CN(Cc1cccc(C(=O)Nc2sc3c(c2C(=O)N/N=C/c2ccc(F)cc2)CCCC3)c1)CC(C)O` (stereo not shown) [Compound 629, 3-{[Bis-(2-hydroxy-propyl)-amino]-methyl}-N-[3-(4-fluoro-benzylidene-hydrazinocarbonyl)-4,5,6,7-tetrahydro-benzo[b]thiophen-2-yl]-benzamide] the same measures were 3010 nM and 12.9 µM.
Take `CC(O)CN(Cc1cccc(C(=O)Nc2sc3c(c2C(=O)N/N=C/c2cccc(F)c2)CCCC3)c1)CC(C)O` (stereo not shown) [Compound 630, 3-{[Bis-(2-hydroxy-propyl)-amino]-methyl}-N-[3-(3-fluoro-benzylidene-hydrazinocarbonyl)-4,5,6,7-tetrahydro-benzo[b]thiophen-2-yl]-benzamide]: the IC50 at rat NaPi-2b is less than 1000 nM; against human NaPi-2a, 3.5 µM.
For `CC(O)CN(Cc1cccc(C(=O)Nc2sc3c(c2C(=O)N/N=C/c2ccc(Cl)c(C(F)(F)F)c2)CCCC3)c1)CC(C)O` (stereo not shown) [Compound 631, 3-{[Bis-(2-hydroxy-propyl)-amino]-methyl}-N-[3-(4-chloro-3-trifluoromethyl-benzylidene-hydrazinocarbonyl)-4,5,6,7-tetrahydro-benzo[b]thiophen-2-yl]-benzamide] the same measures were less than 1000 nM and 2.43 µM.
For `COc1ccc(/C=N/NC(=O)c2c(NC(=O)c3cccc(CN(CC(C)O)CC(C)O)c3)sc3c2CCCC3)cc1` (stereo not shown) [Compound 632, 3-{[Bis-(2-hydroxy-propyl)-amino]-methyl}-N-[3-(4-methoxy-benzylidene-hydrazinocarbonyl)-4,5,6,7-tetrahydro-benzo-[b]thiophen-2-yl]-benzamide] the same measures were less than 1000 nM and 28.7 µM.
Consider `Cc1ccc(/C=N/NC(=O)c2c(NC(=O)c3cccc(CN4CCC(O)CC4)c3)sc3c2CCCC3)cc1C` [Compound 633, N-[3-(3,4-Dimethyl-benzylidene-hydrazinocarbonyl)-4,5,6,7-tetrahydro-benzo[b]thiophen-2-yl]-3-(4-hydroxy-piperidin-1-ylmethyl)-benzamide], for which the IC50 was 1190 nM on rat NaPi-2b and 13.5 µM at human NaPi-2a.
Consider `Cc1ccc(/C=N/NC(=O)c2c(NC(=O)c3cccc(CN4CCC(O)CC4)c3)sc3c2CCCC3)cc1` [Compound 634, 3-(4-Hydroxy-piperidin-1-ylmethyl)-N-[3-(4-methyl-benzylidene-hydrazinocarbonyl)-4,5,6,7-tetrahydro-benzo[b]thiophen-2-yl]-benzamide], for which the IC50 came to 1740 nM at rat NaPi-2b and 16.9 µM against human NaPi-2a.
The corresponding values for `O=C(Nc1sc2c(c1C(=O)N/N=C/c1ccc(F)cc1)CCCC2)c1cccc(CN2CCC(O)CC2)c1` [Compound 635, N-[3-(4-Fluoro-benzylidene-hydrazinocarbonyl)-4,5,6,7-tetrahydro-benzo[b]thiophen-2-yl]-3-(4-hydroxy-piperidin-1-ylmethyl)-benzamide] are 1560 nM and 1.34 µM.
For `O=C(Nc1sc2c(c1C(=O)N/N=C/c1cccc(F)c1)CCCC2)c1cccc(CN2CCC(O)CC2)c1` [Compound 636, N-[3-(3-Fluoro-benzylidene-hydrazinocarbonyl)-4,5,6,7-tetrahydro-benzo[b]thiophen-2-yl]-3-(4-hydroxy-piperidin-1-ylmethyl)-benzamide] the same measures were 3890 nM and 5.3 µM.
The corresponding values for `O=C(Nc1sc2c(c1C(=O)N/N=C/c1ccc(Cl)c(C(F)(F)F)c1)CCCC2)c1cccc(CN2CCC(O)CC2)c1` [Compound 637, N-[3-(4-Chloro-3-trifluoromethyl-benzylidene-hydrazinocarbonyl)-4,5,6,7-tetrahydro-benzo[b]thiophen-2-yl]-3-(4-hydroxy-piperidin-1-ylmethyl)-benzamide] are less than 1000 nM and 0.95 µM.
As for `COc1ccc(/C=N/NC(=O)c2c(NC(=O)c3cccc(CN4CCC(O)CC4)c3)sc3c2CCCC3)cc1` [Compound 638, 3-(4-Hydroxy-piperidin-1-ylmethyl)-N-[3-(4-methoxy-benzylidene-hydrazinocarbonyl)-4,5,6,7-tetrahydro-benzo[b]thiophen-2-yl]-benzamide], the results for the IC50 on rat NaPi-2b and at human NaPi-2a were 3150 nM and 4.22 µM, respectively.
On rat NaPi-2b (phosphate uptake, oocytes expressing rat NaPi-2b, 300 μM, determined from inhibition curve), `CCN(CC)Cc1cccc(C(=O)Nc2ccc(Cl)cc2C(=O)NOCc2ccccc2)c1` [Compound 1077] showed an inhibition at 300 µM of 40.2%.

What is called IC50 is the point on the concentration scale where inhibition reaches its midpoint. As a reminder, the inhibition is the share of the control response that was lost under treatment. Read a low inhibition as little suppression.

The values above are taken from US8134015B2, “Compound inhibiting in vivo phosphorous transport and medicine containing the same” (Kyowa Hakko Kirin Co., Ltd., priority 2003, dated 2012).
